For assay [1], the system named is PLA2g6(L)-dependent Orai1-mediated SOCE. The assay is described as follows: TG-induced store-operated Ca2+ entry (SOCE), Fura-2 imaging in human primary skin fibroblasts. The format is cell-based. The note with it: Skin fibroblast, 10 μM of DES, hPSF, read-out: inhibition of TG-induced Ca^2+ influx.
Procedure: Intracellular Ca^2+ studies were performed using standard Fura-2 imaging technique. Briefly, the cells were loaded with Fura-2/AM (5 μM) (Invitrogen) and cytosolic Ca^2+ (using F340/F380 ratio) was recorded simultaneously in individual cells. Representative traces in the figures show average (±SD) responses from up to 20 cells recorded simultaneously. Ca^2+ changes are shown by ΔRatio (ΔF340/F380), which is the difference between the basal and peak values of Ca^2+ responses. Summary bar graphs show the average (±SE) from 3 independent experiments for each condition; the total number of cells in each experimental group is identified on the graphs.
SOCE was measured in response to extracellular application of 2-2.5 mM Ca^2+ in the presence of TG. Concentration and time of acute TG treatment was titrated for each cell type to ensure >90% loss of Ca^2+ from TG-sensitive stores at the time of Ca^2+ addition. […] To inhibit PLA2g6 activity, (S)-BEL (S-bromoenol lactone, Cayman, USA) was applied (10-50 μM for 20 min in serum-free medium at 37° C.) to the cells after their loading with Fura-2/AM, and was washed away before the start of experiment.
The test system of the next assay is PLA2g6. Put plainly: PLA2g6 activity, modified PLA2 assay kit, fibroblast homogenates. Format: biochemical, human. The following applies: S-BEL 25 μM for 10 min; hPSF from control, idPD and fPD^R747W patients. The protocol:
A modified PLA2 assay kit (Cayman for MEFs, and AbCam for hPSF) was used as previously described^21,26. Briefly, each sample of live hPSF or MEF cells was homogenized using a cold lysis buffer (10 mM Tris-HCl, pH 7.0, 300 mM sucrose, 0.5% Triton X-100). To identify specific activity of Ca^2+-independent PLA2g6, the assay buffers were modified to contain no Ca^2+. To assess catalytic activity of PLA2g6, the cells were homogenized and treated with 10 mM EGTA for 10 min, which is known to directly displace inhibitory calmodulin, and fully activate PLA2g6. For analysis of PLA2g6 activation by store depletion, live cells were pretreated with TG (5 μM for 10 min) before homogenization, and homogenates were not treated with 10 mM EGTA. The specificity of PLA2g6 activity in both cases was confirmed by its inhibition with S-BEL (25 μM for 10 min), a chiral-specific suicidal substrate^38 that discriminates PLA2g6 from all other phospholipases. […] The reaction was stopped and the generation of free thiols was visualized by addition of DTNB for 5 min: the absorbance was determined at 405 nm using a standard microplate reader. […]

The next assay has as its system PLA2g6 ex2^KO mice. Put plainly: L-DOPA challenge test, balance beam test. Format: in vivo, mouse. The protocol: The balance beam test (ref 72, 73) was used to assess the ability of ageing ex2^KO and WT mice to maintain balance while walking along a narrow (2 cm) beam placed 20 cm above a soft mattress. Each mouse was placed on a beam for 2 minutes, and its movement was recorded by video camera. The total travel distance, the number of missteps (paw faults, or slips) during travel, and the number of falls off the beam were analyzed for each mouse, and data summarized for each group as mean±SE. The numbers of animals used for each group are identified on the graphs. L-DOPA challenge test (ref 3) was performed on three age groups (12, 16 and 20 months old) ex2^KO male mice with motor deficits. Control balance beam test was performed in the morning a day before L-3,4-dihydroxyphenylalanine (L-DOPA) challenge. In the morning of the following day, all mice received a single dose of L-DOPA (5, 10 or 25 mg/kg, Sigma) via peritoneal injection. Twenty minutes before L-DOPA administration, mice were given 6 mg/kg of benserazide (Sigma) to inhibit peripheral DOPA decarboxylase. The balance beam test was done 1 h after L-DOPA injection, as described above. Video-recorded data for each mouse were analyzed later, and summarized for each group as mean±SE. The numbers of animals used for each age group are identified next to the graph.

The test system of the next assay is MEF cells. The assay is described as follows: LC3^mCherry/eGFP autophagic flow, live cell imaging in MEFs. Format: cell-based, mouse. The note with it: WT MEFs; prolonged TG treatment, 10 nM for 24 hours. The protocol: Transfection of MEFs was performed using the Amaxa Nucleofector™ system (Lonza, Allendale, N.J., USA). Briefly, the cells were plated in a 6-well plate at a density of 200,000/well. After 24h the cells from each well were collected, centrifuged, re-suspended in 100 μl of electroporation solution (Mirus Bio, Madison, Wis., USA), mixed with 2 μg of the recombinant plasmid DNA and transfected using the T020 program. After electroporation, the cells were plated in 2 ml of warm DMEM containing 10% FBS and 1% penicillin/streptomycin, and grown for 24-48 hours, as specified. Transfection efficiency (verified by expression of GFP or LC3^mCherry/eGFP) was >70%.
Live cell imaging was done using Nikon Ti inverted fluorescence microscope equipped with a Perfect Focus system and environmental chamber (InVivo Scientific). Live cells transfected with LC3^mCherry/eGFP (alone, or in combination with PLA2g6, or its mutants) were imaged in glass-bottom dishes in culture medium at 37° C. and 5% CO2. Images of individual cells were taken using a 60×/1.4 Plan-Apochromat oil immersion objective (Nikon) and filter sets for GFP (ex: 465-496, em: 515-555) and Texas Red (ex: 540-580, em: 600-660). Images of representative cells were analyzed using ImageJ (Wayne Rasband, NIH) software. […]

The structures appear in SMILES notation. Where two headings read alike, the source gives them in different places.

`CC/C(=C(/CC)c1ccc(O)cc1)c1ccc(O)cc1` [DES, diethylstilbestrol]: the inhibition at 10 µM was found to be 80 ± 1% in assay [1] (control group) and 82 ± 4% in assay [1] (idPD group).

On to `O=C1O/C(=C/Br)CC[C@H]1c1cccc2ccccc12` [S-BEL, S-bromoenol lactone], for which the “effect on PLA2g6 activity (catalytic and TG-induced)” value in the assay with PLA2g6 is on record as “inhibition”.

As for `N[C@@H](Cc1ccc(O)c(O)c1)C(=O)O` [L-DOPA, L-3,4-dihydroxyphenylalanine], the “reduction in the number of missteps (balance beam performance)” value in the assay with PLA2g6 ex2^KO mice (5 mg/kg body weight L-DOPA, peritoneal injection, test 1 h after, 12-month old ex2^KO animals) amounted to 60%. For the same compound, the “motor coordination of ex2^KO animals after L-DOPA” value in the assay on PLA2g6 ex2^KO mice (5, 10 or 25 mg/kg, 12, 16 and 20 months old ex2^KO mice) is “dramatically improved motor coordination”. With `C/C=C(/C)C(=O)O[C@H]1C(C)=C2[C@H]([C@@H]1OC(=O)CCCCCCC)[C@@](C)(OC(C)=O)C[C@H](OC(=O)CCC)[C@@]1(O)[C@H]2OC(=O)[C@@]1(C)O` [TG, thapsigargin], in the assay on MEF cells, the “autophagic flow (LC3^mCherry/eGFP)” value is “Autophagic arrest”.

One may read the inhibition as the percentage by which the read-out fell short of the control.

Values taken from patent US11360102B2, “Biomarkers for the early detection of Parkinson's disease” (BOSTON MEDICAL CENTER CORPORATION, priority 2015, dated 2022).
